Source: ChEMBL document CHEMBL4043168, “The design and SAR of a novel series of 2-aminopyridine based LRRK2 inhibitors” (Bioorg Med Chem Lett, 2017)

Columns and labels:
[1] = target: Activated CDC42 kinase 1 (Homo sapiens) (UniProt Q07912); assay: Inhibition of ACK labeling at ATP binding site (TVSVAVKCLKPDVLSQPEAMDDFIR) in human PBMC at 1 uM
[2] = target: 5'-AMP-activated protein kinase catalytic subunit alpha-1 (Homo sapiens) (UniProt Q13131); assay: Inhibition of AMPKa1 labeling at conserved Lys1 (VAVKILNR) in human PBMC at 1 uM
[3] = target: T1, Inhibitor of nuclear factor kappa-B kinase subunit epsilon (Homo sapiens) (UniProt Q14164); assay: Inhibition of IKKe conserved Lys1 (SGELVAVKVFNTTSYLRPR) in human PBMC at 1 uM
T1 sequence (whole entry): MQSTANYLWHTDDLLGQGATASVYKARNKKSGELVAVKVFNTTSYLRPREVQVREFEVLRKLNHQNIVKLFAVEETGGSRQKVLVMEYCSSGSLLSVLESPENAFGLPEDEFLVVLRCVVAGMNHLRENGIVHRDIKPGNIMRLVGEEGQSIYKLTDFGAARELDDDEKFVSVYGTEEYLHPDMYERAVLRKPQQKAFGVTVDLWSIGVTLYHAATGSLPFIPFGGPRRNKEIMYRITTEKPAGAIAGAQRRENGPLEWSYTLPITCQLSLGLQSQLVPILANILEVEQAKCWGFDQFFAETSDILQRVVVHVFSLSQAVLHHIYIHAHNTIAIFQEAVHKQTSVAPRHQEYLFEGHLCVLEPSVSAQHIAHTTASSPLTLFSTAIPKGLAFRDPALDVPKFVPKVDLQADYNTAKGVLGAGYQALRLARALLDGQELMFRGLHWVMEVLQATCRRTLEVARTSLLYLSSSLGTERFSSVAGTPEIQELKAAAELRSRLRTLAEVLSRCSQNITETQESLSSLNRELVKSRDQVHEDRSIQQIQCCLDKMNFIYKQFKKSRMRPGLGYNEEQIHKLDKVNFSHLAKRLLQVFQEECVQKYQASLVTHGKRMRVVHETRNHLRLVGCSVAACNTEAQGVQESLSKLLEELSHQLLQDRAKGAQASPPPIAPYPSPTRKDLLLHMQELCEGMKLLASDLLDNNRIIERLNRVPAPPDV

[4] = target: Kinase suppressor of Ras 2 (Homo sapiens) (UniProt Q6VAB6); assay: Inhibition of KSR2 activation Loop (SKNVFYDNGK) in human PBMC at 1 uM
[5] = target: 1-phosphatidylinositol 3-phosphate 5-kinase (Homo sapiens) (UniProt Q9Y2I7); assay: Inhibition of PIP5K3 ATP binding site (GGKSGAAFYATEDDRFILK) in human PBMC at 1 uM
[6] = target: Receptor-interacting serine/threonine-protein kinase 3 (Homo sapiens) (UniProt Q9Y572); assay: Inhibition of RIPK3 conserved Lys2 (DLKPSNVLLDPELHVK) in human PBMC at 1 uM
[7] = target: Ribosomal protein S6 kinase alpha-1 (Homo sapiens) (UniProt Q15418); assay: Inhibition of RSK1 conserved Lys2 (DLKPENILLDEEGHIK) in human PBMC at 1 uM; conditions: pooled result: one value given for 4 cell lines, strains, targets or settings
[8] = target: Serine/threonine-protein kinase SMG1 (Homo sapiens) (UniProt Q96Q15); assay: Inhibition of SMG1 ATP binding site (DTVTIHSVGGTITILPTKTKPK) in human PBMC at 1 uM
Serine/threonine-protein kinase SMG1 (Homo sapiens), sequence (Q96Q15 whole entry): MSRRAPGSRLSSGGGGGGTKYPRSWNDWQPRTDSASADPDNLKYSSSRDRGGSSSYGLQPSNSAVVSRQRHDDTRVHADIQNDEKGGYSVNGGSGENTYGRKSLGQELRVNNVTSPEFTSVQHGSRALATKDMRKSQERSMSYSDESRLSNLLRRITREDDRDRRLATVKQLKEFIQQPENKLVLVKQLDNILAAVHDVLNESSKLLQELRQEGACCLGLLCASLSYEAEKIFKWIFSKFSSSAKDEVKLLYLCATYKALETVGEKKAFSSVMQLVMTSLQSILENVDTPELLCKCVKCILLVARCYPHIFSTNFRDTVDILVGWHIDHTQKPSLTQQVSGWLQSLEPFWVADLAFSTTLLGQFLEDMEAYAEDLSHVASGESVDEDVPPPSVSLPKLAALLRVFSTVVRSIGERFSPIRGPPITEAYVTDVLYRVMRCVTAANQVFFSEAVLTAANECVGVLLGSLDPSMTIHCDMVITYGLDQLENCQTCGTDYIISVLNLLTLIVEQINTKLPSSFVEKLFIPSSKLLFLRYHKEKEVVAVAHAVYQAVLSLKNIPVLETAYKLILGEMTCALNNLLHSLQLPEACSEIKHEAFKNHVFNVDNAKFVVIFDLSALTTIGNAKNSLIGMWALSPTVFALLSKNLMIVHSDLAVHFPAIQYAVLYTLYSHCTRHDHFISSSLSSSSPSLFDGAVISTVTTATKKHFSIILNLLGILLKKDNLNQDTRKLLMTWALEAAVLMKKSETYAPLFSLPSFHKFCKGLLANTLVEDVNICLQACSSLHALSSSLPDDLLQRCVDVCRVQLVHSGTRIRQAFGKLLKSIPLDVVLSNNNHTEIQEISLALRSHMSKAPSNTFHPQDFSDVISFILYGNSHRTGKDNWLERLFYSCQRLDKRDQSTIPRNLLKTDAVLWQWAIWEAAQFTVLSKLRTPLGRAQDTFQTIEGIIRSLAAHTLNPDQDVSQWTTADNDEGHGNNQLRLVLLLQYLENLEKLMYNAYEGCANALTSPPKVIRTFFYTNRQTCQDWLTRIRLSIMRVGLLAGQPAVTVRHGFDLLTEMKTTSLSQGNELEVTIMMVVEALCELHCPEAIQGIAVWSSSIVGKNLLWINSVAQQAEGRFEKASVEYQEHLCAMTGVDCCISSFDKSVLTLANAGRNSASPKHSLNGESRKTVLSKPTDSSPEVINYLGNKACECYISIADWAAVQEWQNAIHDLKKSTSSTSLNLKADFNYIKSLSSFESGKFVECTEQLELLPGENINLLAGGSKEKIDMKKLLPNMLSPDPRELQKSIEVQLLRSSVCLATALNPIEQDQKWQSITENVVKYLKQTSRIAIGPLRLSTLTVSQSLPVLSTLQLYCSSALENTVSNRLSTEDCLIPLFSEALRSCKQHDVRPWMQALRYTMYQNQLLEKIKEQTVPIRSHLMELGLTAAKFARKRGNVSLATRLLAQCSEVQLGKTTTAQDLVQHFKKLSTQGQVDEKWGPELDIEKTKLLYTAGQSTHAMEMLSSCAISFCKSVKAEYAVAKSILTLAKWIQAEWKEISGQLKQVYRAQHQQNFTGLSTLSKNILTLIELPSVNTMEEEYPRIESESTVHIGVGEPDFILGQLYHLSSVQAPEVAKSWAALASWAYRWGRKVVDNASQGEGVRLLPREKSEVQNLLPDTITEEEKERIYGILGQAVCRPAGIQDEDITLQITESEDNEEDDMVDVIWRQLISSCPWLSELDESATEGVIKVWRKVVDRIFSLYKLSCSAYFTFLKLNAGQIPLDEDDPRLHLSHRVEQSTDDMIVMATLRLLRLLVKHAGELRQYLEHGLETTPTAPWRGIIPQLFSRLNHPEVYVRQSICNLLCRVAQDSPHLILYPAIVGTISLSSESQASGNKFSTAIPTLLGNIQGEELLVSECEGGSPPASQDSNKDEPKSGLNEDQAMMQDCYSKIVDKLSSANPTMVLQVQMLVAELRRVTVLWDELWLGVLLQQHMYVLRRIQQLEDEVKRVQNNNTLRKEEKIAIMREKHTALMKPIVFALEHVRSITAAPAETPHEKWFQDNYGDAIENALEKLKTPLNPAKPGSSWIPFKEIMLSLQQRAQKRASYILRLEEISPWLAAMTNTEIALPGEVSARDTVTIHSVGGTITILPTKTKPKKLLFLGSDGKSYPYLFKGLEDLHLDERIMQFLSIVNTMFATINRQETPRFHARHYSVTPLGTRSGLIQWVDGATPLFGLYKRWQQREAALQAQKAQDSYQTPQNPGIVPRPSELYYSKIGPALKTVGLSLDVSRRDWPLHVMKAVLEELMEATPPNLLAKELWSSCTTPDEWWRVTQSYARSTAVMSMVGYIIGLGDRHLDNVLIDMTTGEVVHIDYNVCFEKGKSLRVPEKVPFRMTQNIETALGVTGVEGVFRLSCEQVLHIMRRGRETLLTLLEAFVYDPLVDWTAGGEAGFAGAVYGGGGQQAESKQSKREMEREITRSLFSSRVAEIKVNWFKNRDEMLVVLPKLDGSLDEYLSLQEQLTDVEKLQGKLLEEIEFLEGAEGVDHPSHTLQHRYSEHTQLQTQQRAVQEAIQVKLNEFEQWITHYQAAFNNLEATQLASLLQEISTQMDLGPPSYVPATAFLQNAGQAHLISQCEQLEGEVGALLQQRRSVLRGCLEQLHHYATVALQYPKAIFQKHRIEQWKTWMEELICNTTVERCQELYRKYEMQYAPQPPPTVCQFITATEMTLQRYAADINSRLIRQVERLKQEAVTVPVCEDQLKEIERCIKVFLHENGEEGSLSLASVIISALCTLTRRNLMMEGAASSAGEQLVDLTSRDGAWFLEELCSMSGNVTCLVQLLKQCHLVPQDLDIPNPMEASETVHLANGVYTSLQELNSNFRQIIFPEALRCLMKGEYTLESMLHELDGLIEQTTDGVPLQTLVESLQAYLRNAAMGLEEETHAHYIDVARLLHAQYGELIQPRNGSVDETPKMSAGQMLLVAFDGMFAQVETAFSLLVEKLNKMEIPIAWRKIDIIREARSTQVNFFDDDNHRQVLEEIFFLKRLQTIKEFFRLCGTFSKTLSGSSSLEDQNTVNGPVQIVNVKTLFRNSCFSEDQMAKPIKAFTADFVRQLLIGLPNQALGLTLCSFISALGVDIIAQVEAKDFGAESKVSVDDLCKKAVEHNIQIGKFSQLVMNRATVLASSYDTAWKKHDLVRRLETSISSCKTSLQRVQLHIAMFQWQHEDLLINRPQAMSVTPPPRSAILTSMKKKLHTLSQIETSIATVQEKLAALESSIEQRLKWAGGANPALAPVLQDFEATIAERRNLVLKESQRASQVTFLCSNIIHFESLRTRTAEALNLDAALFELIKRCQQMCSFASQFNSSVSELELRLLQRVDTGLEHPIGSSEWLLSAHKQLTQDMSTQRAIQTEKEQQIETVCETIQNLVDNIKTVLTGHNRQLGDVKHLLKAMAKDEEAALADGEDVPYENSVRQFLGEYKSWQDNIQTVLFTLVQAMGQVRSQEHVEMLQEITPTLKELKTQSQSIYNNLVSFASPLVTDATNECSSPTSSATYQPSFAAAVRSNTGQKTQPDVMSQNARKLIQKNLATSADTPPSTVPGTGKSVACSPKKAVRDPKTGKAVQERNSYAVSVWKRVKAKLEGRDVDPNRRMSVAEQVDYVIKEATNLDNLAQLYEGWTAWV

[9] = target: Myosin light chain kinase, smooth muscle (Homo sapiens) (UniProt Q15746); assay: Inhibition of smMLCK conserved Lys1 (VWAGKFFK) in human PBMC at 1 uM
[10] = target: Tyrosine-protein kinase CSK (Homo sapiens) (UniProt P41240); assay: Inhibition of CSK labeling at conserved Lys2 (VSDFGLTKEASSTQDTGKLPVK) in human PBMC at 0.1 uM
[11] = target: Leucine-rich repeat serine/threonine-protein kinase 2 (Homo sapiens, UniProt Q5S007); assay: Inhibition of LRRK2 conserved Lys2 (DLKPHNVLLFTLYPNAAIIAK) in human PBMC at 0.1 uM
[12] = target: Mitogen-activated protein kinase kinase kinase 2 (Homo sapiens) (UniProt Q9Y2U5); assay: Inhibition of MAP3K2 conserved Lys2 (DIKGANILR) in human PBMC at 0.1 uM
[13] = target: MAP/microtubule affinity-regulating kinase 4 (Homo sapiens) (UniProt Q96L34); assay: Inhibition of MARK4 conserved Lys1 (EVAIKIIDK) in human PBMC at 0.1 uM
[14] = target: Serine/threonine-protein kinase SIK2 (Homo sapiens) (UniProt Q9H0K1); assay: Inhibition of QIK conserved Lys1 (EVAIKIIDK) in human PBMC at 0.1 uM
[15] = target: Ribosomal protein S6 kinase alpha-4 (Homo sapiens) (UniProt O75676); assay: Inhibition of MSK2 domain1 conserved Lys2 (DIKLENILLDSNGHVVLTDFGLSK) in human PBMC at 0.1 uM
Ribosomal protein S6 kinase alpha-4 (Homo sapiens), sequence (O75676 whole entry, looked up, the tested form may be a part): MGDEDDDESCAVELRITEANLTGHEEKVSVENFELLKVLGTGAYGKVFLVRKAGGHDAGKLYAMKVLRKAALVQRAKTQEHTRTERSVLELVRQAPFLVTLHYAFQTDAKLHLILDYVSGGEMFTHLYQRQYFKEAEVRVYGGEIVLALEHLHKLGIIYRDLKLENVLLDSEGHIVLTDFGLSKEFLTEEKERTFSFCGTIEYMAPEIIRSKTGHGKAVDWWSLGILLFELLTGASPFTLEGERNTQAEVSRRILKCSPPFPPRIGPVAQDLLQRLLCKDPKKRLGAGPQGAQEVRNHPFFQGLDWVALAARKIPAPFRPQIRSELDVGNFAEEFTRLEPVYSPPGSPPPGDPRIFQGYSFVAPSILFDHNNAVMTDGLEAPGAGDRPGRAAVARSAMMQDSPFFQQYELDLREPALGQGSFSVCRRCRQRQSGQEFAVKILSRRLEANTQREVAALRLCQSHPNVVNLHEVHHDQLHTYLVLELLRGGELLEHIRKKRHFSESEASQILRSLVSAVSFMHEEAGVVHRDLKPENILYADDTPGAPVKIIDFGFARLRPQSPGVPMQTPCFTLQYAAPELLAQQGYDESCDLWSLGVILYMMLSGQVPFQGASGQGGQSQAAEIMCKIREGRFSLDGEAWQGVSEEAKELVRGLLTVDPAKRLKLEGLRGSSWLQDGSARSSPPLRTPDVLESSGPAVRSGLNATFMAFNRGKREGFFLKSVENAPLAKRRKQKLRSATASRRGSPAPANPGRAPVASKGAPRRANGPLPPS

[16] = target: Serine/threonine-protein kinase Nek8 (Homo sapiens) (UniProt Q86SG6); assay: Inhibition of NEK8 conserved Lys2 (DLKTQNILLDK) in human PBMC at 0.1 uM
Serine/threonine-protein kinase Nek8 (Homo sapiens), sequence (Q86SG6 whole entry): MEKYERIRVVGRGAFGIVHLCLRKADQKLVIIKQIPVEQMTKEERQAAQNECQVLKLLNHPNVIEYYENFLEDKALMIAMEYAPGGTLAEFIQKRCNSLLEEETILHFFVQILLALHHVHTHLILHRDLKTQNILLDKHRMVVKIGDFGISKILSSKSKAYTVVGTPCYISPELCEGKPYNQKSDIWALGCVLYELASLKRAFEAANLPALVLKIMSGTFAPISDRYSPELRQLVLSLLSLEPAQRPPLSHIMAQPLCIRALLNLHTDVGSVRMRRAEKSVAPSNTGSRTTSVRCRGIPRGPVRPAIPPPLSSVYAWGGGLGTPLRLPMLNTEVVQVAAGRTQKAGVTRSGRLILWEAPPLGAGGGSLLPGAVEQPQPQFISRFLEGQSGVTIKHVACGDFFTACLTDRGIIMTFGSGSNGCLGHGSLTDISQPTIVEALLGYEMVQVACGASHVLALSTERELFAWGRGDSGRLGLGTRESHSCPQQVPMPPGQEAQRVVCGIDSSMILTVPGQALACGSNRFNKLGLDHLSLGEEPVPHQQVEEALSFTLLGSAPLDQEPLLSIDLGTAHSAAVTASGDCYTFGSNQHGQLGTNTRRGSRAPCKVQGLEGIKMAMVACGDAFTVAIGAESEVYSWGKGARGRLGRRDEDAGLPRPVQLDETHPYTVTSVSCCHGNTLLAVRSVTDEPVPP

[17] = target: Serine/threonine-protein kinase Nek9 (Homo sapiens) (UniProt Q8TD19); assay: Inhibition of NEK9 conserved Lys2 (DIKTLNIFLTK) in human PBMC at 0.1 uM

SMILES: CC(C)n1cc(-c2cc(-c3ccc(CN4CCOCC4)cc3)cnc2N)nn1
- inhibition [1]: -5.7%
- inhibition [2]: 17.3%
- inhibition [3]: 5.5%
- inhibition [4]: 20.1%
- inhibition [5]: -9.2%
- inhibition [6]: -7.3%
- inhibition [7]: 10.2%
- inhibition [8]: -8.2%
- inhibition [9]: 26%
- inhibition [10]: -9.6%
- inhibition [11]: 8.6%
- inhibition [12]: 23.2%
- inhibition [13]: -6.7%
- inhibition [14]: -6.7%
- inhibition [15]: 31.2%
- inhibition [16]: 0.2%
- inhibition [17]: 26.5%
